{
  "source": "patent US11401303B2",
  "about": "“Synthetic peptide BRAP and application in preparation of anti-inflammatory drug for COVID-19 thereof” (TAIAN CITY QIHANG BIOTECHNOLOGY CO., priority 2020, dated 2022)",
  "key": {"[1]": {"system": "OVA-induced allergic rhinitis", "test": "Rat allergic nasal inflammation (OVA-induced allergic rhinitis), intranasal administration", "assay_type": "in vivo, SD rat", "settings": "bilateral nasal cavities 50 μL/side, 4 weeks", "description": "SD rat modeling: two stages of intraperitoneal injection for sensitization and intranasal dripping for stimulation. Ovalbumin was injected intraperitoneally, and 1 mg ovalbumin (V-class Sigma, USA) was dissolved in 1 ml normal saline, and 30 mg of aluminum hydroxide was added as an immunologic adjuvant. Each rat was intraperitoneally injected 1 ml ovalbumin suspension prepared above with 1 ml/time every other day and for 7 times in total; and stimulated intranasally with ovalbumin on the 15th day; 20 mg ovalbumin (V-class Sigma, USA) were dissolved in 1 ml normal saline to be prepared into a 2% solution; and the 2% ovalbumin solution was used for stimulation by nasal dripping; and 50 ul nasal drips were administered in each of the nasal cavities of each rat for 7 consecutive days.\nBlank control group: 30 mg of aluminum hydroxide+1 ml of normal saline were mixed evenly, and then injected intraperitoneally; and the method was the same as the above.\nNormal saline was dripped into nasal cavities on the 15th day.\nAfter the final nasal dripping was performed, each rat was observed and evaluated according to a scoring table: Sneezing, nose scratching, gasping and nasal secretions\n1. Administration way: a drug was administered with a micro-sampling gun, bilateral nasal cavities of a rat were administered with 50 μL/side, after being administered for 20 min, a 2% ovalbumin solution was administered to bilateral nasal cavities of the rat; 50 μL/side nasal dripping was administered for provocation; the above treatment was performed for 4 consecutive weeks to observe the pharmacodynamic effect.\nHigh-dose synthetic peptide brap: a synthetic peptide brap freeze-dried powder (5 mg/bottle) was taken, and 1.63 ml sterile saline solution was added for dissolving;\nmedium-dose synthetic peptide brap: a synthetic peptide brap freeze-dried powder (5 mg/bottle) was taken, and 4.89 ml sterile saline solution was added for dissolving;\nlow-dose synthetic peptide brap: a synthetic peptide brap freeze-dried powder (5 mg/bottle) was taken, and 14.67 ml sterile saline solution was added for dissolving;"}, "Bradykinin B1 receptor": {"target": "T1, Bradykinin B1 receptor (Homo sapiens, UniProt P46663)", "T1 construct": "host or cells: HEK293/Gα15/B1", "T1 sequence (P46663 1-353)": "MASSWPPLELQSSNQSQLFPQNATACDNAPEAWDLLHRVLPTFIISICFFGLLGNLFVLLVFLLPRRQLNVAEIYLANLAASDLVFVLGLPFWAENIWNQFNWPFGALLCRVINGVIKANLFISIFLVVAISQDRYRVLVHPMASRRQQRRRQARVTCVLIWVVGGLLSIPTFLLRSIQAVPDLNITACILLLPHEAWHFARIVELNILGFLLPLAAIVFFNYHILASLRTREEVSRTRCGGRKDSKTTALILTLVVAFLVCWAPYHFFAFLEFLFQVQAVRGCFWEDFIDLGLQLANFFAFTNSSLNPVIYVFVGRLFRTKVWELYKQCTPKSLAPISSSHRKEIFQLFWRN", "assay_type": "cell-based"}, "Bradykinin B2 receptor": {"target": "Bradykinin B2 receptor (Homo sapiens, UniProt P30411)", "sequence (P30411 whole entry)": "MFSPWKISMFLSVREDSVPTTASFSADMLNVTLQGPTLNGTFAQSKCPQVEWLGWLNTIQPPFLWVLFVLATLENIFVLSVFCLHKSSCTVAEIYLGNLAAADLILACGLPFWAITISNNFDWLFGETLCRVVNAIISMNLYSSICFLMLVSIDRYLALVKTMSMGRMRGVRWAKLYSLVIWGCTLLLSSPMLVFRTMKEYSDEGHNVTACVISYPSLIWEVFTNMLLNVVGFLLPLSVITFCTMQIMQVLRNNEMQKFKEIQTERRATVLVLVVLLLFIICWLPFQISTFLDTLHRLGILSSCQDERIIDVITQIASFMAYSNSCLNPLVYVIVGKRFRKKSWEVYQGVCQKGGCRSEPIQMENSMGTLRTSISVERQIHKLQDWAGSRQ", "test": "cell-based"}, "endotoxin": {"system": "endotoxin", "test": "Endotoxin content in blood of LPS-induced mice (LAL kit)", "assay_type": "in vivo, Balb/C mice", "settings": "low, medium and high dose (4, 8, 16 mg/kgBW i.v.); 6 h after LPS 5 mg/kg BW i.p.; dose-response relationship", "description": "The detection was performed according to the specification of the endotoxin test LAL (Limulus Amebocyte Lysate) kit:\n(1) anticoagulant venous blood of each group of mice constructed in example 9 was taken and centrifuged for 2 min at 3000 rpm/min; 100 ul supernate was taken and added to a 0.9 ml sample treating fluid;\n(2) the above sample was put in a 70° C. dry-heat sterilization box for 10 min, then cooled by running water;\n(3) concentration gradient of an endotoxin standard was 1.0, 0.5, 0.25 and 0.1 EU/ml;\n(4) several endotoxin-free test tubes were taken, and 100 ul water for detecting bacterial endotoxin, an endotoxin standard and a test product were added respectively;\n(6) 100 ul TAL solution was added, mixed evenly, and covered by a silver paper, and incubated for 10 min at 37° C.;\n(7) 100 ul developing-matrix solution was added, mixed evenly, and incubated for 6 min at 37° C.;\n(8) 500 ul azo reagent 1 was added and mixed evenly;\n(9) 500 ul azo reagent 2 was added and mixed evenly;\n(10) 500 ul azo reagent 3 was added, mixed evenly, standing for 5 min;\n(11) OD value was measured at 545 nm."}, "TNF-a": {"system": "TNF-a", "test": "TNF-a content in blood serum of LPS-induced mice (ELISA)", "assay_type": "in vivo, Balb/C mice", "description": "1. A reagent was taken out of a kit and balanced for 30 min at room temperature;\n2. standard wells and sample wells were set, and 50 ul standards at different concentrations were respectively added to each standard well.\n3. 50 ul sample to be tested (blood sample from each group of mice model constructed in example 9) was first added to the wells of the sample to be tested;\n4. 100 ul HRP-labeled detection antibody was respectively added to each standard well and well to be tested;\n5. reaction wells were sealed by a microplate membrane for incubation for 60 min at 37° C.;\n6. liquid was discarded, water was dried by an absorbent paper, each well was filled with scrubbing solution, standing for 1 min;\n7. a culture solution was discarded, water was dried by an absorbent paper, and steps 2-6 were operated repeatedly for 5 times;\n8. 50 ul substrate A/B was respectively added to each well for incubation for 15 min at 37° C.;\n9. 50 ul stop buffer was added to each well to detect an OD value at 450 nm by an microplate reader within 15 min."}, "ROS": {"system": "ROS", "test": "ROS fluorescence intensity in lung tissue of LPS-induced mice by flow cytometry", "assay_type": "in vivo, Balb/C mice", "description": "1. About 100 mg fresh left lung tissue from each group of mice constructed in example 9 was taken and washed for three times with PBS to remove blood;\n2. the tissue was put in a nylon net, ground by a grinding rod, and washed by PBS;\n3. a cell suspension was collected, and filtered by a 200-mesh sieve to remove tissue blocks;\n4. the cell suspension was collected and centrifuged for 5 min at 1000 rpm/min;\n5. cellular supernatant was removed and PBS was added for resuspending;\n6. 10 μmol/L DCFH-DA was prepared with a serum-free culture solution;\n7. cells were centrifuged to remove PBS, and the above probe diluent was added to make the cell concentration being 10^6/ml;\n8. the cells were incubated for 30 min at 37° C., and shaken off for once every 3 min;\n9. the cells were centrifuged for 5 min at 1000 rpm/min, and cell precipitates were resuspended on a serum-free culture medium;\n10. step 9 was repeated for twice;\n11. 500 μL PBS was added to resuspend cells, and flow cytometry was used to detect mean fluorescence intensity."}},
  "note": "Ends that are not written are not given here.",
  "data": [
    {"sequence": "RVLNGPEAPA [brap]", "values": [
      {"measurement": "Scoring change before and after treatment", "setting": "[1]; all dose groups of the peptide, continued OVA provocation", "value": "decreases"},
      {"measurement": "Allergic rhinitis symptom scoring compared with the model group", "setting": "[1]; high, medium and low dose, significant difference", "value": "can improve the OVA-induced allergic rhinitis symptoms"},
      {"measurement": "Effect of compound acting together with EC10 and EC20", "setting": "Bradykinin B1 receptor", "value": "no obvious effect"},
      {"measurement": "Inhibitory activity on B1 receptor activation by EC80 irritant", "setting": "Bradykinin B1 receptor", "value": "obviously inhibited"},
      {"measurement": "IC50", "setting": "Bradykinin B2 receptor", "value": "~1000", "unit": "µM"},
      {"measurement": "Blood endotoxin level compared with the model group", "setting": "endotoxin", "value": "obviously below that in the model group"},
      {"measurement": "TNF-a level in serum compared with the model group", "setting": "TNF-a; low, medium and high-dose intravenous injection groups, p<0.01", "value": "dose-response relationship"},
      {"measurement": "TNF-a level in LPS-induced blood", "setting": "TNF-a; nasal dripping group, at 12 h, P<0.05", "value": "can decrease"},
      {"measurement": "ROS content in lung tissues", "setting": "ROS; induced by LPS for 6 h", "value": "obviously reducing the increase in ROS content"},
      {"measurement": "ROS content in lung tissue", "setting": "ROS; induced by LPS for 12 h", "value": "obviously reducing the increase in ROS content"},
      {"measurement": "ROS content in lung tissues", "setting": "ROS; intranasal administration, LPS-induced mice", "value": "reducing the overly increased ROS content"},
      {"measurement": "ROS content in lung tissues", "setting": "ROS; intravenous injection, LPS-induced mice", "value": "obviously decreases the overly increased ROS content"}
    ]}
  ]
}
